Results on four compounds are retold here after patent US20240391931A1 (Bristol-Myers Squibb Company, priority 2021, published 2024).

Counter-ions that a name gives are not always drawn.

Experiment [1] concerns the target T1, HER2YVMA (Homo sapiens, UniProt P04626, INS775YVMA). As to the kind of experiment: HER2 signaling (pHER2) in Ba/F3-HER2YVMA cells. It is filed as cell-based. Details: expressed in transfected cells; host or cells: HEK293 (pool), Ba/F3 (clones), BEAS2B (clones); lentiviral vector pCDH-CMV-MCS-EF1-Neo. The conditions noted are these: read-out: Ba/F3 YVMA pHER2 EC50. On the procedure: Cell culture, plasmid cloning, and lentiviral transduction were carried out according to standard procedures. The Human HER2 cDNA construct in pCMV6-Entry for the HER2 wildtype (WT) expression was obtained from Origene. The HER2 cDNA including the 12-nucleotide insertion corresponding to YVMA insertion (HER2YVMA) was codon optimized, synthesized and cloned by GenScript (Piscataway, NJ) in pcDNA3.1. The lentiviral constructs expressing HER2YVMA and HER2 WT were sub-cloned using PCR at System Biosciences (SBI, Mountainview, CA) into lentiviral vectors pCDH-CMV-MCS-EF1-Neo and lentiviral particles were generated.
Engineered lines expressing HER2YVMA and HER2 WT were prepared in HEK293 (human embryonic kidney cells), Ba/F3 (Interleukin 3 (IL3)-dependent murine pro B cell line), and BEAS2B (primary immortalized human bronchial epithelial cell line). Ba/F3, BEAS2B, and HEK293 cells were obtained from the American Type Culture Collection (ATCC, Manassas, VA). Parental Ba/F3 cells were grown in suspension in complete RPMI 1640 supplemented with 10% FBS and 1% P/S and 10 ng/ml interleukin 3 (IL3, Sigma-Aldrich). Hek293 and BEAS2B cells were grown as monolayers in DMEM supplemented with 10% FBS and 1% P/S. All cells were maintained and propagated in a humidified 5% CO2 incubator at 37° C.
To generate Ba/F3, BEAS2B, and Hek-293 cells engineered with lentivirus to express HER2 WT or HER2YVMA, the cells were transduced with lentiviruses at multiplicity of infection (MOI) of 1 or 10; transduced cells were selected and maintained with G418 ([…]) (Geneticin, Life Technologies, Carlsbad, CA). Ba/F3 engineered cells were subjected to gradual withdrawal of interleukin 3 (IL-3, Sigma-Aldrich). After selection, IL3 independent Ba/F3 HER2YVMA, and BEAS2B HER2YVMA cells were cloned by limiting dilution. Hek293 HER2YVMA cells were used as pool. HER2 and phospho HER2 levels were confirmed by flow cytometery and immunoassay (MSD, Meso-Scale Discovery, Rockville, Maryland).
Compound treatment of Ba/F3-HER2YVMA suspension cells was done as described with minor modifications. Cells were plated at 300000 cell/well in 96-well round bottom plates in RPMI supplemented with 2% FBS and immediately dosed with compounds serially diluted in media without serum for a final concentration of 1% FBS, 0.1% DMSO. Cells were incubate with compounds for 1.5 hr, and plates were spun at 1500 rpm for 5 mins to remove media without disturbing pellet. Cells were lysed as described above.
HER2 signaling was evaluated using phospho (Tyr1248)/total ErbB2 whole cell lysate MSD plates (Meso-Scale Discovery, Gaithersburg, MD). The phospho HER2 signal was normalized to total HER2 for each sample; results are reported as % DMSO control. The normalized data was fitted using a sigmoidal curve analysis program (Graph Pad Prism version 6) with variable Hill slope to determine EC50 values.
The HER2 signaling results are provided in Table 4, under columns titled “BT474-pHER2 EC50”, “N87-pHER2 EC50”, and “NCI-H1781-pHER2 EC50”. Hek293-HER2YVMA ins fall under the heading “HEKYVMA-pHER2 EC50”, Ba/F3 HER2YVMA fall under the heading “Ba/F3 YVMA-pHER2 EC50” and BEAS2B-HER2YVMA fall under the heading “BEAS2B YVMA-pHER2 EC50”.

Experiment [2] concerns the target T1, HER2YVMA. In words: HER2 occupancy assay in Ba/F3-HER2YVMA cells. It is filed as cell-based. Details: expressed in transfected cells; host or cells: Ba/F3 (clones); lentiviral vector pCDH-CMV-MCS-EF1-Neo. The conditions noted are these: concentration at which 50% of HER2 is irreversible bound, read-out: Ba/F3 YVMA HER2 Occ. The method, then: In order to assess free HER2 protein, a biotinylated probe was utilized. BT474, N87, and Ba/F3-HER2YVMA cells were treated with test compound as described for HER2 signaling. After compound treatment, cells were washed three times with cold phosphate buffer saline (PBS, Life Technologies, Carlsbad, CA), and lysed in modified occupancy lysis buffer prepared with an irreversible biotinylated tool compound (1 μM) in 25 mM Tris pH 7.5, 150 mM NaCl, 1% Triton, and supplemented with cOmplete, EDTA-free Protease inhibitor cocktail (Roche), Phosphatase Inhibitor Cocktails 2 and 3 (Sigma-Aldrich), and 1 mM PMSF (Sigma-Aldrich). To determine % occupancy, lysates were loaded into duplicate plates of the phospho ([…])/total ErbB2 whole cell lysate MSD kit (Meso-Scale Discovery) and incubated overnight. Plates were washed and incubation with either HER2-sulfoTag (1:50, Meso Scale Discovery) or Strep-Sulfo Tag (1:1000, Meso Scale Discovery), for detection of […]. A standard curve of untreated cells in serial dilution was included in each plate to independently fit streptavidin (Free HER2) and total HER2 MSD signals; non-specific signal (BSA control spots) was subtracted from each well. Free HER2 was then normalized by total HER2 for each sample. The results are reported as % DMSO control. The normalized data was fitted using a sigmoidal curve analysis program (Graph Pad Prism version 6) with variable Hill slope to determine EC50 values. The results are provided in Table 4, under columns titled “BT474-HER2 Occ”, “N87-HER2 Occ”, and “Ba/F3 YVMA-HER2 Occ”. HER2 Occ is the concentration of test compound at which 50% of HER2 is irreversible bound.

T1 sequence (P04626 with tags, fused parts or gaps INS775YVMA): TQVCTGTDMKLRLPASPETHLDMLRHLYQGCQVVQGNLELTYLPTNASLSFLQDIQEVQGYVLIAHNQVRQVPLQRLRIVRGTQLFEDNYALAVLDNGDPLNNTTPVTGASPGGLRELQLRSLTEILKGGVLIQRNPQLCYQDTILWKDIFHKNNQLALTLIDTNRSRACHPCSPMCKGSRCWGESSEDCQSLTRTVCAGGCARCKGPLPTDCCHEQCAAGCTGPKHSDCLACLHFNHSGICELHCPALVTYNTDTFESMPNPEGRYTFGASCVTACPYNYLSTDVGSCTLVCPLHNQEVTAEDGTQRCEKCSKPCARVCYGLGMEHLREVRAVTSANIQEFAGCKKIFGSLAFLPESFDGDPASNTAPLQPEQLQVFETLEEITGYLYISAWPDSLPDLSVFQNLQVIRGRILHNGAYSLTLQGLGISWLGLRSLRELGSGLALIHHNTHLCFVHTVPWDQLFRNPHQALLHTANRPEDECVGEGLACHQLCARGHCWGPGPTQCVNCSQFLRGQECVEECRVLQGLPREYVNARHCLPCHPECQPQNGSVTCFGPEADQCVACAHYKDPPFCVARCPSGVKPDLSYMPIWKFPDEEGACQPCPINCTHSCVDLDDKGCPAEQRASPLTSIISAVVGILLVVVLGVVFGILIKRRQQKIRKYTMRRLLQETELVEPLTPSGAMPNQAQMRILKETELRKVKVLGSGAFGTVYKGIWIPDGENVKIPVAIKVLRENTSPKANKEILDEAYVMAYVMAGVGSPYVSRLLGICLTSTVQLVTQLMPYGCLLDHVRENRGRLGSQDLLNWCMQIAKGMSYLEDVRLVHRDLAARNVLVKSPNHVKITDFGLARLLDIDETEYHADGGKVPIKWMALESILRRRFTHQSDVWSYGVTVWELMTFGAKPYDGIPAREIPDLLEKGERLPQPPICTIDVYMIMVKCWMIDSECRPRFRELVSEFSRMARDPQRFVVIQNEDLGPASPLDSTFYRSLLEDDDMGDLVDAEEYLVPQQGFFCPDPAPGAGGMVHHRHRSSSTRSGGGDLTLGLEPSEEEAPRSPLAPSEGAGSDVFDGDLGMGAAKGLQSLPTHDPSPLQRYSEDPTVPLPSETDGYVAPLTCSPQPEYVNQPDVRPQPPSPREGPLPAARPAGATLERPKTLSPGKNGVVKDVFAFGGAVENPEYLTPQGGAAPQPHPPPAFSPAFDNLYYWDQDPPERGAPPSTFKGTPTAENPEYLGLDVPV

On to `Cc1cc(Nc2ncnc3sc4c(c23)CCN(C(=O)/C=C/CN2CCOCC2)C4)ccc1Oc1ccc2ncnn2c1` [Compound 12], for which the EC50 at HER2YVMA [1] is below 100 nM.
Take `Cc1ccc(Oc2ccc(Nc3ncnc4sc5c(c34)CCN(C(=O)/C=C/CN(C)C)C5)cc2C)cn1` [Compound 8, (E)-4-(Dimethylamino)-1-(4-((3-methyl-4-((6-methylpyridin-3-yl)oxy)phenyl)amino)-5,6-dihydropyrido[4′,3′:4,5]thieno[2,3-d]pyrimidin-7(8H)-yl)but-2-en-1-one]: the EC50 at HER2YVMA [2] and at HER2YVMA [1] was below 100 nM in each case.
Consider `Cc1ccc(Oc2ccc(Nc3ncnc4sc5c(c34)CCN(C(=O)/C=C/CN3CCOCC3)C5)cc2C)cn1` [Compound 17, (E)-1-(4-((3-Methyl-4-((6-methylpyridin-3-yl)oxy)phenyl)amino)-5,6-dihydropyrido[4′,3′:4,5]thieno[2,3-d]pyrimidin-7(8H)-yl)-4-morpholinobut-2-en-1-one], for which the EC50 at HER2YVMA [2] and on HER2YVMA [1] was below 100 nM each time.
As for `Cc1ccc(Oc2ccc(Nc3ncnc4sc5c(c34)CCN(C(=O)/C=C/CN3CC4CCC(C4)C3)C5)cc2C)cn1` [Compound 16, (E)-4-(3-azabicyclo[3.2.1]octan-3-yl)-1-(4-((3-methyl-4-((6-methylpyridin-3-yl)oxy)phenyl)amino)-5,8-dihydropyrido[4′,3′:4,5]thieno[2,3-d]pyrimidin-7(6H)-yl)but-2-en-1-one benzenesulfonate salt], the EC50 at HER2YVMA [2] and at HER2YVMA [1] was below 100 nM in each case.
